How the values were obtained:
[1] = tested on: p53 expressing L-12 mouse B cell line; test: Apoptosis by hypo-diploid nuclei PI staining, transformed B cell line; type: cell-based; settings: 10 or 100 μg per ml in 5% ethanol solution, 48 h
Description: Apoptosis was measured by FACS analysis with a hypo-diploid nuclei propidium iodide (PI) staining of an amino-phenyl-acetic acid octadec-(Z)-9-enyl ester treated p53 expressing L-12 mouse B cell line. FIGS. 4A-4C: L-12 cells treated with 0, 10 or 100 μg/ml of amino-phenyl-acetic acid octadec-(Z)-9-enyl ester in ethanol solution, respectively; FIGS. 4D-4F: L-12 cells treated with 0, 10 or 100 μg/ml of the control reagent 4-methyl-piperazino-acetic acid ethyl ester in ethanol solution, respectively; and FIGS. 4G-4I: L-12 cells treated with an ethanol volume corresponding to 0, 10 or 100 μg/ml of amino-phenyl-acetic acid octadec-(Z)-9-enyl ester, respectively. FL2-A is the measure of fluorescence. […]
(§1) B or T-cell apoptosis was detected by flow cytometry. […] The cells were then subjected to flow cytometric analysis; for each sample 10,000 were collected and cell-cycle distribution was analyzed according to relative DNA content (PI staining). […] The cells were then collected, stained by APO-DIRECT TUNNEL kit (Phnxflow, CITY, Calif., USA); mitochondrial potential was measured by DePsipher (R&D Systems, Minneapolis, Minn.) according to the manufacturer's procedure. Intracellular caspase activity was measured by Apostat kit (R&D Systems), according to the manufacturer's procedure. The cells were analyzed by Flow cytometry using FACSort (Becton Dickinson) and CellQuest software (Becton Dickinson). […]

[2] = tested on: freshly isolated mouse B cells; test: Spontaneous apoptosis by hypo-diploid nuclei PI staining, primary B cells; type: cell-based; settings: 1 or 100 μg/ml in ethanol solution
Description: Apoptosis was measured by FACS analysis with a hypo-diploid nuclei propidium iodide (PI) staining of freshly isolated mouse B cells treated with amino-phenyl-acetic acid octadec-(Z)-9-enyl ester in ethanol solution. FIGS. 5A-5C: L-12 cells treated with 0, 1 or 100 μg/ml of amino-phenyl-acetic acid octadec-(Z)-9-enyl ester, respectively; FIGS. 5D-5F: L-12 cells treated with 0, 1 or 100 μg/ml of the control reagent 4-methyl-piperazino-acetic acid ethyl ester, respectively; and FIGS. 5G-5I: L-12 cells treated with an ethanol volume corresponding to 0, 1 or to 100 μg/ml of amino-phenyl-acetic acid octadec-(Z)-9-enyl ester in ethanol solution, respectively.
as §1

[3] = tested on: human peripheral blood T cells; test: Apoptosis by FACS, hypo-diploid nuclei PI staining, healthy T cells; type: cell-based; settings: 10 μg in ethanol solution, versus control molecule
Description: White bars (left bar of each pair) represent cells treated with 10 μg of amino-phenyl-acetic acid octadec-(Z)-9-enyl ester in ethanol solution, and black bars (right bar of each pair) represent cells treated with 10 μg of the control molecule 4-methyl-piperazino-acetic acid ethyl ester in ethanol solution. The two bars on the left represent freshly isolated T cells and the two bars on the right represent transformed Jurkat cells.
B or T-cell apoptosis was detected by flow cytometry. Briefly, purified cells were seeded in 24 well plates, 5×10^5 per well, and incubated for 48 h at 37° C. 5% CO2 in the presence of HSP60 (heat shock protein 60) at the indicated concentration of amino-phenyl-acetic acid octadec-(Z)-9-enyl ester. […] The cells were then subjected to flow cytometric analysis; for each sample 10,000 were collected and cell-cycle distribution was analyzed according to relative DNA content (PI staining). […] The cells were then collected, stained by APO-DIRECT TUNNEL kit (Phnxflow, CITY, Calif., USA); mitochondrial potential was measured by DePsipher (R&D Systems, Minneapolis, Minn.) according to the manufacturer's procedure. Intracellular caspase activity was measured by Apostat kit (R&D Systems), according to the manufacturer's procedure. The cells were analyzed by Flow cytometry using FACSort (Becton Dickinson) and CellQuest software (Becton Dickinson).

virulent 3LL clone, D122 = test: 3LL induced lung carcinoma, intravenous injection of D122 cells, deaths and lung weight; type: in vivo, mouse; settings: for lung weight of the living mice: in mg (unit assumed); for number of dead mice: groups of 10, control seven
Description: 8-weeks old C57BL/6 male mice in groups of 10 were injected intravenously with 500,000 cells of a virulent 3LL clone, D122. Mice were treated daily for 35 days with either 5% ethanol in PBS (control); 100 μg amino-phenyl-acetic acid octadec-(Z)-9-enyl ester in 5% ethanol in PBS subcutaneously (SC); or 100 μg amino-phenyl-acetic acid octadec-(Z)-9-enyl ester in 5% ethanol in PBS intranasally (IN).
8-weeks old C57BL/6 male mice in groups of 10 were injected intravenously with 500,000 cells of a virulent 3LL clone, D122. Mice either left untreated, or were treated daily for 30 days with intranasal administration of either 5% ethanol in PBS (control); 100 μg of amino-phenyl-acetic acid octadec-(Z)-9-enyl ester in PBS; or 100 μg of amino-phenyl-acetic acid octadec-(Z)-9-enyl ester in 5% ethanol in PBS.
As shown in FIGS. 7A-7D, while treatment with amino-phenyl-acetic acid octadec-(Z)-9-enyl ester in PBS reduced the lung weight of the living mice from 718±351 in the control mice treated with 5% ethanol in PBS to 671±187 (FIGS. 7B-7C), treatment with amino-phenyl-acetic acid octadec-(Z)-9-enyl ester in ethanol solution reduced the lung weight of the living mice to 317±103 (FIG. 7D).

[4] = 100 μg in 5% ethanol in PBS intranasally daily for 35 days
[5] = 100 μg in 5% ethanol in PBS subcutaneously daily for 35 days

## CCCCCCCC/C=C\CCCCCCCCOC(=O)C(N)c1ccccc1 (stereo not drawn) [amino-phenyl-acetic acid octadec-(Z)-9-enyl ester]
[1]
  apoptosis / cell cycle (cells in sub-GO state): induced massive apoptosis
[2]
  spontaneous apoptosis / cell-cycle of primary B cells: partially protected from the spontaneous apoptosis
[3]
  apoptosis: no more apoptosis than with a control molecule
Virulent 3LL clone, D122; 100 μg in 5% ethanol in PBS intranasally daily for 30 days
  lung weight of the living mice: 317±103
Virulent 3LL clone, D122; [4]
  number of dead mice: a single mouse
  lung weight of the living mice: 259±84
Virulent 3LL clone, D122; [5]
  number of dead mice: four
  lung weight of the living mice: 501±252
Virulent 3LL clone, D122; 100 μg in PBS intranasally daily for 30 days
  lung weight of the living mice: 671±187
